Measured values: US6825185B2, “Substituted aryl compounds as novel cyclooxygenase-2 selective inhibitors, compositions and methods of use” (NitroMed, Inc., priority 2000, dated 2004)

What was measured:
COX-1 = COX-1 (Homo sapiens, UniProt P23219); assay: COX-1 enzyme activity in human whole blood (A23187 stimulated, thromboxane B2 EIA); format: cell-based; set-up: Human blood (≈50 mL) from male or female donors who had not received any aspirin or NSAIDs for 14 days; endogenous in cells; host or cells: human whole blood from donors; conditions: test compound at 100 μM
COX-2 = molecular target: T1, COX-2 (Homo sapiens, UniProt P35354); assay: COX-2 enzyme activity in human whole blood (LPS induced, thromboxane B2 EIA); format: cell-based; set-up: Human blood (≈50 mL) from male or female donors who had not received any aspirin or NSAIDs for 14 days; endogenous in cells; host or cells: human whole blood from donors, LPS-induced; conditions: test compound at 10 μM
T1 sequence (P35354 18-604): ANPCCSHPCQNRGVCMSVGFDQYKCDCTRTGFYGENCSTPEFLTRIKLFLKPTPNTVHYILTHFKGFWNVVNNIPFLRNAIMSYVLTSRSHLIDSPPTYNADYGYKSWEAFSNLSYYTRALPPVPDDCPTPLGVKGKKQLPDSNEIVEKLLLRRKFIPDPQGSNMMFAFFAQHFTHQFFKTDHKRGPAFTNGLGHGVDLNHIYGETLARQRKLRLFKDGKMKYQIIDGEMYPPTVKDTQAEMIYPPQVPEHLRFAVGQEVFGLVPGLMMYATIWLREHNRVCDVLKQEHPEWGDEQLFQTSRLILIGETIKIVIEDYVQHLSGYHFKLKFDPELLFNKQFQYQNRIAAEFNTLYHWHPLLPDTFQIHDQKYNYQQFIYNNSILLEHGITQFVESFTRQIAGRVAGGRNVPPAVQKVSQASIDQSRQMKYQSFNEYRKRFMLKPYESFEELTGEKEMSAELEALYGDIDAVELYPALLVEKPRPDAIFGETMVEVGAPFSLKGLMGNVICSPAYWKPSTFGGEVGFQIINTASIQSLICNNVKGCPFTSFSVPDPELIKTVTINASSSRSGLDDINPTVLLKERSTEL

Sequence of COX-1 (P23219 24-599): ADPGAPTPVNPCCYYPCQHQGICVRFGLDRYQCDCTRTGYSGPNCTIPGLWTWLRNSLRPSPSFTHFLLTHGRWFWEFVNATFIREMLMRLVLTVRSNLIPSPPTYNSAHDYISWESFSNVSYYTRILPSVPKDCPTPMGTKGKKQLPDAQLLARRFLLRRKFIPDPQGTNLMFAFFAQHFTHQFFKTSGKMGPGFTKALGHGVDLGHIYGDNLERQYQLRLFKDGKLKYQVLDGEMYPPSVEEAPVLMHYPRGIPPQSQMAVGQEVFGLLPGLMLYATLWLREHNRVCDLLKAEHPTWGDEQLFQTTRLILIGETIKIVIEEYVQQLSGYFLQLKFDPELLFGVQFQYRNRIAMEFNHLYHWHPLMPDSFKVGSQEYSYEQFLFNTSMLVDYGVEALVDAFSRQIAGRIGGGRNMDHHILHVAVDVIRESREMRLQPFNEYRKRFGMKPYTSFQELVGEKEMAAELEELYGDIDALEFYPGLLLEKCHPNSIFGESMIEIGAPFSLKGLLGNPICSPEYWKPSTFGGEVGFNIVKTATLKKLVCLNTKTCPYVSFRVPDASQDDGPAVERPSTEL

`CS(=O)(=O)c1ccc(-c2cc3c(cc2C(=O)c2cc(F)cc(F)c2)OCCO3)cc1` [Example 22, 3,5-Difluorophenyl 7-(4-(methylsulfonyl)phenyl)(2H, 3H-benzo(e)1,4-dioxin-6-yl) ketone] gave a melting point of 191 to 193 °C, an inhibition at 100 µM (COX-1) of 90% and an inhibition at 10 µM (COX-2) of 55%.

`CS(=O)(=O)c1ccc(-c2ccccc2C=C2CCCCC2)cc1` [Example 24e, 1-(2-(Cyclohexylidenemethyl)phenyl)-4-(methylsulfonyl)benzene] gave a melting point of 83 °C, an inhibition at 100 µM (COX-1) of 55% and an inhibition at 10 µM (COX-2) of 90%.

For `CS(=O)(=O)c1ccc(-c2ccccc2C(=O)c2cccc(F)c2)cc1` [Example 25c, 3-Fluorophenyl 2-(4-(methylsulfonyl)phenyl)phenyl ketone], the melting point was 105 to 106 °C, the inhibition at 100 µM (COX-1) was 40% and the inhibition at 10 µM (COX-2) was 40%.

With `CS(=O)(=O)c1ccc(-c2ccccc2Cc2cccc(F)c2)cc1` [Example 26, 1-(2-((3-Fluorophenyl)methyl)phenyl)-4-(methylsulfonyl)benzene] the melting point was 97 to 98 °C, the inhibition at 100 µM (COX-1) was 25% and the inhibition at 10 µM (COX-2) was 10%.
